Values of other authors as cited in PMC9851200, “Multiparameter phenotypic screening for endogenous TFEB and TFE3 translocation identifies novel chemical series modulating lysosome function” (Autophagy, 2022).

Experiments:
Parameters in all cases: method as in original PKIS2 published data
[1] = target: T1, kinases (KINOMEscan panel) (Homo sapiens, UniProt Q9UL54); conditions: kinase TAOK2; Published KINOMEscan; ref original PKIS2 published data; cited from earlier work
T1 sequence (Q9UL54 1-1235): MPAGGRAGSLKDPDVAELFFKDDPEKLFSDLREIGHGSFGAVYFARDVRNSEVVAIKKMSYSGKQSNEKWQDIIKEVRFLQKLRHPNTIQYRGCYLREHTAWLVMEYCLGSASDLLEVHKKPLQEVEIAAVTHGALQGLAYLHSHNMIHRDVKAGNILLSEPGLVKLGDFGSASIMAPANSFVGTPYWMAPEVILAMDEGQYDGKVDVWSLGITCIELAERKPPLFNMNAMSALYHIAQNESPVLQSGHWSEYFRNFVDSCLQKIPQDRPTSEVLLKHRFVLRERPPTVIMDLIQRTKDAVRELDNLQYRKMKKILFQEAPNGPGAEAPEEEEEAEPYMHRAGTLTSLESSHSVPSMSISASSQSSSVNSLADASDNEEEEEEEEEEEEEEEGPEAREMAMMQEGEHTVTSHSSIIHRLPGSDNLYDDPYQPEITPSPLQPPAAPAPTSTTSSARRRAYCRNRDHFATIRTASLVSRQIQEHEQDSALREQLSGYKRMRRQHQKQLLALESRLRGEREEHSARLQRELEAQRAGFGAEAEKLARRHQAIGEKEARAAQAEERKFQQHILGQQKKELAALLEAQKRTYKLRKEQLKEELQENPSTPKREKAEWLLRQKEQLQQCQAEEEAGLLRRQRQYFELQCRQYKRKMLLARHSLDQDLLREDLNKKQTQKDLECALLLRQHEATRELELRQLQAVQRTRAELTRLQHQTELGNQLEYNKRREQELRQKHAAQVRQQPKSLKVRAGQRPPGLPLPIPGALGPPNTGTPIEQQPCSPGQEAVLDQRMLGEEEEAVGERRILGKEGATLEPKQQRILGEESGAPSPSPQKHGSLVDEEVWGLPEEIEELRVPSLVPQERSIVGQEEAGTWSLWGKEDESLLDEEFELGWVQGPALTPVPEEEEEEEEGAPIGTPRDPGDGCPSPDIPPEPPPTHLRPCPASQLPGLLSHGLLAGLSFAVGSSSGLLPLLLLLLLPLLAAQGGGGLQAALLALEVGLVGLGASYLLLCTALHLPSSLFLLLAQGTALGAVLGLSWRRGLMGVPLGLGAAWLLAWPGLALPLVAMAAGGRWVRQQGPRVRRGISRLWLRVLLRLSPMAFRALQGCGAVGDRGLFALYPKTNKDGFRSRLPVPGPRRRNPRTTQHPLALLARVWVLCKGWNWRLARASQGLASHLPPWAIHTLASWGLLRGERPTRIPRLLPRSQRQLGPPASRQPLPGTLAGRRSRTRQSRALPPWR

[2] = target: kinases (KINOMEscan panel) (Homo sapiens, UniProt Q9BWU1); conditions: kinase CDK19; Published KINOMEscan; ref original PKIS2 published data; cited from earlier work
[3] = target: T2, kinases (KINOMEscan panel) (Homo sapiens, UniProt P30530); conditions: AXL; Published KINOMEscan; ref original PKIS2 published data; cited from earlier work
T2 sequence (P30530 26-894): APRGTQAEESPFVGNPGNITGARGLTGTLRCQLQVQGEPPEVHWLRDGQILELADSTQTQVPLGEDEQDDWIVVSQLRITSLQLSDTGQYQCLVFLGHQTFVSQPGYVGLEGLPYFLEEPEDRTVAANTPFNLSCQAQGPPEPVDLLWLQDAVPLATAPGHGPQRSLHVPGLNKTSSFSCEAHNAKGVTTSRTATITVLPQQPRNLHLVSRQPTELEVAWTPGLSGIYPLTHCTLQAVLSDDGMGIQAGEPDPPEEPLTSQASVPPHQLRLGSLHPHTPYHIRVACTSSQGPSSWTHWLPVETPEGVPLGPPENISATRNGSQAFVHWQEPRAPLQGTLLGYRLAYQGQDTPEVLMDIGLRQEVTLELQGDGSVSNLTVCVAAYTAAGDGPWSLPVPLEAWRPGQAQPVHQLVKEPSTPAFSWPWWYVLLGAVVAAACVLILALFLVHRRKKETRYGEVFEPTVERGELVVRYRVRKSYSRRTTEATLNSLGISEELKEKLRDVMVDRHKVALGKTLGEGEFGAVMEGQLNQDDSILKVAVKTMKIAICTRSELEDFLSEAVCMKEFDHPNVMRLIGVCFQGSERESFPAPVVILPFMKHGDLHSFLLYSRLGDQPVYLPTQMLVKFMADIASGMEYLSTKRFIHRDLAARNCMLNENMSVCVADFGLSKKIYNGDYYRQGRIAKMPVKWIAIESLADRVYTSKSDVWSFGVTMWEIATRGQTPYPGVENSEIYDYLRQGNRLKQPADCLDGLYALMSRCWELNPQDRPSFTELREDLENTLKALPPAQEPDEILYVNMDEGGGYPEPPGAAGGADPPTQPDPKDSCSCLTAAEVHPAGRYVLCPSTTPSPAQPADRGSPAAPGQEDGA

[4] = target: kinases (KINOMEscan panel) (Homo sapiens, UniProt Q9UPE1); conditions: SRPK3; Published KINOMEscan; ref original PKIS2 published data; cited from earlier work
kinases (KINOMEscan panel) (Homo sapiens, UniProt Q9UPE1), sequence (Q9UPE1 whole entry): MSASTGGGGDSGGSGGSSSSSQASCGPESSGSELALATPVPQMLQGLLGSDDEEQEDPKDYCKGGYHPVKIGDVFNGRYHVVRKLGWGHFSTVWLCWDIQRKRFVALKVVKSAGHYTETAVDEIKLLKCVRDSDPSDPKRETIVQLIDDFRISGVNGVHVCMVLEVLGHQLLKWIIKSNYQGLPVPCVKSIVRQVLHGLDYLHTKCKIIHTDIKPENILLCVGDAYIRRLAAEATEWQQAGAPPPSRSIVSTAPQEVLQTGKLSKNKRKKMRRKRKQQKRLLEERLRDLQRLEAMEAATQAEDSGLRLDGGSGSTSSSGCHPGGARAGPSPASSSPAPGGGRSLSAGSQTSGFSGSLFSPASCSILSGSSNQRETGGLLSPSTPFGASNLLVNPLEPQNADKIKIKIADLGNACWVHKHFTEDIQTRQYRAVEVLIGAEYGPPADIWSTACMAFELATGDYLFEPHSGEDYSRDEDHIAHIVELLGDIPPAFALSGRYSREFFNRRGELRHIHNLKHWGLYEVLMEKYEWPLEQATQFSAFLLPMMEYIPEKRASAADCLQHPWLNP

kinases (KINOMEscan panel) (Homo sapiens, UniProt Q9BWU1), sequence (Q9BWU1 whole entry): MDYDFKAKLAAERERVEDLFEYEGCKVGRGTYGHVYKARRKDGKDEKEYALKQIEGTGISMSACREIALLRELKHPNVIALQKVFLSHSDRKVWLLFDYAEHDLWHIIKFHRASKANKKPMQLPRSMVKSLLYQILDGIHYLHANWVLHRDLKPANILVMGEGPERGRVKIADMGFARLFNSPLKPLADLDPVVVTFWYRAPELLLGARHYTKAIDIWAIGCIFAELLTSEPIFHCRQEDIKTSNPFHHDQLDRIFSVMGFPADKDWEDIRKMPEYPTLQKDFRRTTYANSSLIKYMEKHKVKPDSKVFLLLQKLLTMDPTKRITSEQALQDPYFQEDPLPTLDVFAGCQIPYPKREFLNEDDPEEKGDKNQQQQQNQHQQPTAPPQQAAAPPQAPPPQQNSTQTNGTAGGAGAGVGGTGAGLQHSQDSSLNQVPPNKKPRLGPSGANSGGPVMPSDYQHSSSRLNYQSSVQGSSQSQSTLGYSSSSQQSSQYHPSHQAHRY

Cc1cccc(-c2nc(Nc3ccncc3)c3ccccc3n2)n1 [NK215]
KINOMEscan TAOK2 [1]: 17
KINOMEscan CDK19 [2]: 0
KINOMEscan AXL [3]: 7
KINOMEscan SRPK3 [4]: 15
